Our source for the Ki values is patent US20090069300A1, “ISOQUINOLINYL AND ISOINDOLINYL DERIVATIVES AS HISTAMINE-3 ANTAGONISTS” (Wyeth, priority 2007, published 2009).

Where a name gives a salt, the structure may show the parent alone. Bounds are passed on as bounds.

T1 sequence (Q9Y5N1 whole entry): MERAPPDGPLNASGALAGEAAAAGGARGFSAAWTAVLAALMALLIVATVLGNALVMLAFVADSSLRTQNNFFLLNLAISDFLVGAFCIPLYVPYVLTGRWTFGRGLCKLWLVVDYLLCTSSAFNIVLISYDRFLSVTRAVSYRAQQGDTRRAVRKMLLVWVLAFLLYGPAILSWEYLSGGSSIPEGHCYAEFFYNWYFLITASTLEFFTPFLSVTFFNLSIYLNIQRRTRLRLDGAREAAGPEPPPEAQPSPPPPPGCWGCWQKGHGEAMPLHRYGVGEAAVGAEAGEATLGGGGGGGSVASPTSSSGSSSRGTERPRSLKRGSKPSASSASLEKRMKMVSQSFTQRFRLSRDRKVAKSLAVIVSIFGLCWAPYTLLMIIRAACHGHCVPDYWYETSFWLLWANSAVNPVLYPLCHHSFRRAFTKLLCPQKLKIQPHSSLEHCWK

This test addresses T1, Human Histamine H3 Receptor (Homo sapiens, UniProt Q9Y5N1).
T1 construct: expressed in transfected cells; host or cells: HEK293T (stably transfected; membranes prepared from the cells)
The test can be described thus: Methyl histamine binding in human histamine H3 receptor cell line. The following applies: read-out: H3 Binding Ki. The method, then:
Evaluation of Methyl Histamine Binding in Human Histamine H3 Receptor Cell Line
The affinity of test compounds for the histamine 3 (H3) receptor is evaluated in the following manner. […] Cells are scraped from the plate, transferred to centrifuge tubes, washed one time in PBS by centrifugation in a Sorvall RT7 Plus centrifuge (2000 rpm 10 minutes, 4° C.). The resulting pellets are stored at −80° C. until ready for use. Cells are re-suspended in buffer (50 mM Tris pH=7.5) and placed in a Dounce homogenizer, douncing ten times to homogenize cells. The homogenate is spun down by centrifugation (Sorvall RT7 Plus, 1800 rpm 10 minutes, 4° C.). The supernatant is placed in a Corex tube and spun down by centrifugation (Sorvall RC 5c Plus, 17,000 rpm 20 minutes, 4° C.). The pellet is resuspended in buffer (50 mM Tris, pH 7.5). Protein concentration (ug/ul) is determined using the Micro-BCA Protein Determination. The binding assay is set up in a 96 well microtiter plate in a total volume of 250 uL. Non-specific binding is determined in the presence of 10 uM clobenpropit. The final radioligand concentration is 1 nM. The test compound is serially diluted using the Beckman Biomek2000 to a final approximate range of 100 uM to 100 pM. Membranes are suspended in buffer, homogenized in 2 bursts of ten seconds using a Vitris mechanical homogenizer set at power setting 5. Ten μg of membranes are added to each well. Following a one hour incubation at 30° C., the reaction is terminated by the addition of ice cold buffer and rapid filtration with a Packard Filtermate Harvester through a GF/B filter pre-soaked with 1% PEI for one hour. The plate is dried for one hour at 37° C. and 60 μL Microscint Scintillant is added to each well. The CPM per well is measured on a Packard Top Count NXT. Ki values are determined in nM. […] CPM values are expressed as % specific binding and plotted vs compound concentration. A curve is fitted using a four-parameter logistic fit and the IC50 value is determined. The Ki is calculated from this using the Cheng-Prusoff equation: […]=IC50/1+(L/Kd) where L=concentration of free radioligand used in the assay, and Kd is the dissociation constant of the radioligand for the receptor. L is determined for each experiment by counting an aliquot of the diluted radioligand (corresponding to that added to each well) and the Kd has previously been determined under identical conditions for this cell line/radioligand.
A word on the Ki: it is the equilibrium dissociation constant of an inhibitor or competing ligand from its target. Regarding `N#Cc1cccc(-c2ccc3c(c2)CCN(CCN2CCCC2)C3=O)c1` [Example 15, 3-[1-oxo-2-(2-pyrrolidin-1-ylethyl)-1,2,3,4-tetrahydroisoquinolin-6-yl]benzonitrile], the Ki was < 10 nM.
With `C[C@@H]1CCCN1CCN1CCc2cc(-c3ccc(C(=O)NC4CC4)cc3)ccc2C1=O` [Example 76, N-cyclopropyl-4-(2-{2-[(2R)-2-methylpyrrolidin-1-yl]ethyl}-1-oxo-1,2,3,4-tetrahydroisoquinolin-6-yl)benzamide] the figure was < 10 nM; with `CN(C)C(=O)c1ccc(-c2ccc3c(c2)CCN(CCN2CCCC2)C3)cc1` [Example 183, N,N-dimethyl-4-[2-(2-pyrrolidin-1-ylethyl)-1,2,3,4-tetrahydroisoquinolin-6-yl]benzamide], < 10 nM; with `CCNC(=O)c1ccc(-c2ccc3c(c2)CCN(CCN2CCCC2)C3=O)c(F)c1` [Example 140, N-ethyl-3-fluoro-4-[1-oxo-2-(2-pyrrolidin-1-ylethyl)-1,2,3,4-tetrahydroisoquinolin-6-yl]benzamide], < 10 nM.
With `CNC(=O)c1ccc(-c2ccc3c(c2)CCN(CCN2CCCC2)C3=O)cc1` [Example 59, N-methyl-4-[1-oxo-2-(2-pyrrolidin-1-ylethyl)-1,2,3,4-tetrahydroisoquinolin-6-yl]benzamide] the figure was < 10 nM; with `CCNC(=O)c1ccc(-c2ccc3c(c2)CCN(CCN2CCCC2)C3)cc1` [Example 182, N-ethyl-4-[2-(2-pyrrolidin-1-ylethyl)-1,2,3,4-tetrahydroisoquinolin-6-yl]benzamide], < 10 nM.
Regarding `C[C@@H]1CCCN1CCN1CCc2cc(C(=O)NC3Cc4ccccc4C3)ccc2C1=O` [Example 148, N-(2,3-dihydro-1H-inden-2-yl)-2-{2-[(2R)-2-methylpyrrolidin-1-yl]ethyl}-1-oxo-1,2,3,4-tetrahydroisoquinoline-6-carboxamide], the Ki is < 10 nM.
As for `CN(C)C(=O)c1ccc(-c2ccc3c(c2)CCN(CCN2CCCC2)C3=O)cc1` [Example 56, N,N-dimethyl-4-[1-oxo-2-(2-pyrrolidin-1-ylethyl)-1,2,3,4-tetrahydroisoquinolin-6-yl]benzamide], the figure is < 10 nM; as for `C[C@H]1CCCN1CCN1CCc2cc(-c3ccc(F)cc3)ccc2C1=O` [Example 39, 6-(4-fluorophenyl)-2-{2-[(2S)-2-methylpyrrolidin-1-yl]ethyl}-3,4-dihydroiso-quinolin-1(2H)-one hydrochloride], 10.1 to 25 nM.
As for `C[C@@H]1CCCN1CCN1CCc2cc(Oc3ccc(C(=O)N4CCCC4)cc3)ccc2C1=O` [Example 160, 2-{2-[(2R)-2-methylpyrrolidin-1-yl]ethyl}-6-[4-(pyrrolidin-1-ylcarbonyl)phenoxy]-3,4-dihydroisoquinolin-1(2H)-one hydrochloride], the figure is < 10 nM; as for `O=C(NCCOc1ccccc1)c1ccc(-c2ccc3c(c2)CCN(CCN2CCCC2)C3=O)cc1` [Example 71, 4-[1-oxo-2-(2-pyrrolidin-1-ylethyl)-1,2,3,4-tetrahydroisoquinolin-6-yl]-N-(2-phenoxyethyl)-benzamide], 50.1 to 100 nM; as for `NC(=O)c1ccc(-c2ccc3c(c2)CCN(CCN2CCCC2)C3)cc1` [Example 180, 4-[2-(2-pyrrolidin-1-ylethyl)-1,2,3,4-tetrahydroisoquinolin-6-yl]benzamide], 10.1 to 25 nM.
In the case of `C[C@@H]1CCCN1CCN1CCc2cc(-c3ccc(C(=O)NC4CCC4)cc3)ccc2C1=O` [Example 74, N-cyclobutyl-4-(2-{2-[(2R)-2-methylpyrrolidin-1-yl]ethyl}-1-oxo-1,2,3,4-tetrahydroisoquinolin-6-yl)benzamide], the Ki is < 10 nM.
As for `O=C1c2ccc(-c3cccc(OC(F)(F)F)c3)cc2CCN1CCN1CCCC1` [Example 13, 2-(2-pyrrolidin-1-ylethyl)-6-[3-(trifluoromethoxy)phenyl]-3,4-dihydroisoquinolin-1(2H)-one], the figure is 25.1 to 50 nM; as for `N#Cc1ccc(Oc2ccc3c(c2)CCN(CCN2CCCC2)C3=O)nc1` [Example 47, 6-{[1-oxo-2-(2-pyrrolidin-1-ylethyl)-1,2,3,4-tetrahydroisoquinolin-6-yl]oxy}nicotinonitrile], 10.1 to 25 nM.
As for `CN(C)C(=O)c1ccc(-c2ccc3c(c2)CCN(CCN2CCCC2)C3=O)c(F)c1` [Example 137, 3-fluoro-N,N-dimethyl-4-[1-oxo-2-(2-pyrrolidin-1-ylethyl)-1,2,3,4-tetrahydroisoquinolin-6-yl]benzamide], the figure is < 10 nM; as for `O=C(c1ccc(-c2ccc3c(c2)CCN(CCN2CCCC2)C3=O)cc1Cl)N1CCCC1` [Example 134, 6-[3-chloro-4-(pyrrolidin-1-ylcarbonyl)phenyl]-2-(2-pyrrolidin-1-ylethyl)-3,4-dihydroisoquinolin-1(2H)-one], < 10 nM; as for `C[C@@H]1CCCN1CCN1CCc2cc(Oc3ccc(C#N)cc3)ccc2C1=O` [Example 49, 4-[(2-{2-[(2R)-2-methylpyrrolidin-1-yl]ethyl}-1-oxo-1,2,3,4-tetrahydroisoquinolin-6-yl)oxy]benzonitrile], < 10 nM.
As to `NC(=O)c1ccc(Oc2ccc3c(c2)CCN(CCN2CCCC2)C3=O)cc1` [Example 91, 4-{[1-oxo-2-(2-pyrrolidin-1-ylethyl)-1,2,3,4-tetrahydroisoquinolin-6-yl]oxy}benzamide], the Ki is 10.1 to 25 nM.
As for `N#Cc1ccc(-c2ccc3c(c2)CCN(CCN2CCCC2)C3=O)cc1` [Example 19, 4-[1-oxo-2-(2-pyrrolidin-1-ylethyl)-1,2,3,4-tetrahydroisoquinolin-6-yl]benzonitrile], the figure is < 10 nM; as for `O=C1c2ccc(-c3ccc(F)cc3)cc2CCN1CCN1CCCCCC1` [Example 44, 2-(2-azepan-1-ylethyl)-6-(4-fluorophenyl)-3,4-dihydroisoquinolin-1(2H)-one hydrochloride], < 10 nM.
With `CCN(CC)C(=O)c1ccc(-c2ccc3c(c2)CCN(CCN2CCC[C@H]2C)C3=O)cc1` [Example 65, N,N-diethyl-4-(2-{2-[(2R)-2-methylpyrrolidin-1-yl]ethyl}-1-oxo-1,2,3,4-tetrahydroisoquinolin-6-yl)benzamide] the figure was < 10 nM.
With `C[C@@H]1CCCN1CCN1CCc2ccc(-c3ccc(C(=O)N4CCCC4)cc3)cc2C1=O` [Example 86, 2-{2-[(2R)-2-methylpyrrolidin-1-yl]ethyl}-7-[4-(pyrrolidin-1-ylcarbonyl)phenyl]-3,4-dihydroisoquinolin-1(2H)-one] the figure was < 10 nM; with `CC(C)NC(=O)c1ccc(-c2ccc3c(c2)CCN(CCN2CCC[C@H]2C)C3=O)cc1` [Example 77, N-isopropyl-4-(2-{2-[(2R)-2-methylpyrrolidin-1-yl]ethyl}-1-oxo-1,2,3,4-tetrahydroisoquinolin-6-yl)benzamide], < 10 nM.
As for `CNC(=O)c1ccc(-c2ccc3c(c2)CCN(CCN2CCCC2)C3)cc1` [Example 181, N-methyl-4-[2-(2-pyrrolidin-1-ylethyl)-1,2,3,4-tetrahydroisoquinolin-6-yl]benzamide], the Ki was < 10 nM.
With `N#Cc1ccc2c(ccn2-c2ccc3c(c2)CCN(CCN2CCCC2)C3=O)c1` [Example 35, 1-[1-oxo-2-(2-pyrrolidin-1-ylethyl)-1,2,3,4-tetrahydroisoquinolin-6-yl]-1H-indole-5-carbonitrile Hydrochloride] the figure was < 10 nM.
